This assay deals with ULK1 (Homo sapiens (Human), UniProt O75385). Put plainly: ULK1 inhibition assay (Table 1). The format is biochemical. Conditions: * = tested as a mixture of regioisomers.

Consider 39 compounds from patent US10266549B2, “ULK1 inhibitors and methods using same” (SALK INSTITUTE FOR BIOLOGICAL STUDIES, priority 2014, dated 2019).

Bounds are passed on as bounds.

Chain of ULK1 (O75385 whole entry, species assumed): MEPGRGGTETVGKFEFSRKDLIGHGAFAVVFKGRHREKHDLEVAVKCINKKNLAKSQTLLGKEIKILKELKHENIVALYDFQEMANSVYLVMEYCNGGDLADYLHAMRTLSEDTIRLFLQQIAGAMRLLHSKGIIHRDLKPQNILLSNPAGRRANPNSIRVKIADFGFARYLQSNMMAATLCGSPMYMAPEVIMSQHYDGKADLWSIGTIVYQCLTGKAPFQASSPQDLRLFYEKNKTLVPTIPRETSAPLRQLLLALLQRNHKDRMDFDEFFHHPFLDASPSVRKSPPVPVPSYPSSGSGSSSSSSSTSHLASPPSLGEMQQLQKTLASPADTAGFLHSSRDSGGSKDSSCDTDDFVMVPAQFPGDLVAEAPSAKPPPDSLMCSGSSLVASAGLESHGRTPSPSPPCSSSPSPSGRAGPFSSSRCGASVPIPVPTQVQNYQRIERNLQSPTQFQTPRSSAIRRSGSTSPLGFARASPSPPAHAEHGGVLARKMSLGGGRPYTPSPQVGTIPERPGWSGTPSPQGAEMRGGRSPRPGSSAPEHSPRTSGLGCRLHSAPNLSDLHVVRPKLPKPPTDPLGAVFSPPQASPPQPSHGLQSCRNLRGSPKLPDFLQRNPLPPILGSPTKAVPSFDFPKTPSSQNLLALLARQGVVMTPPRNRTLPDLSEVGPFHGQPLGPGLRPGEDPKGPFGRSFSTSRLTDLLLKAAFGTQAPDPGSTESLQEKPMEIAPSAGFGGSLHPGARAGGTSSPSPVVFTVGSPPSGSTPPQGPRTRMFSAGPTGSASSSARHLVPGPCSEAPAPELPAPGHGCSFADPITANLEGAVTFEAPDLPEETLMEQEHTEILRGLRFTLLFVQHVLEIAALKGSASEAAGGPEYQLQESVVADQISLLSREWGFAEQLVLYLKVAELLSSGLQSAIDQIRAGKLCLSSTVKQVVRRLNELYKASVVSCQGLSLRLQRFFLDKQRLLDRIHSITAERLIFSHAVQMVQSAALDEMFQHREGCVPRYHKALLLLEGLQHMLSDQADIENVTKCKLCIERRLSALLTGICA

The IC50 is the concentration needed to halve the response being measured. For `O=C1CCc2cc(Nc3ncc(Br)c(NC4CC4)n3)ccc2N1` [compound 159, 6-((5-bromo-4-(cyclopropylamino)pyrimidin-2-yl)amino)-3,4-dihydroquinolin-2(1H)-one], the IC50 is less than 200 nM. To `COc1ccc(Nc2ncc(C(F)(F)F)c(O)n2)cc1` [105b, 2-((4-methoxyphenyl)amino)-5-(trifluoromethyl)pyrimidin-4-ol] belongs greater than 2000 nM; to `COc1cc(Nc2ncc(Br)c(Nc3ccccn3)n2)cc(OC)c1OC` [compound 22, Bromo-N^4-(pyridin-2-yl)-N^2-(3,4,5-trimethoxyphenyl) pyrimidine-2,4-diamine], less than 200 nM; to `COc1cc(N2CCOCC2)ccc1Nc1ncc(Br)c(Nc2ccccc2S(=O)(=O)N(C)C)n1` [compound 80, 2-(5-Bromo-2-(2-methoxy-4-morpholinophenylamino)pyrimidin-4-ylamino)-N—N-dimethylbenzenesulfonamide], less than 200 nM. In the case of `FC(F)(F)c1cnc(Nc2ccc3c(c2)OCCO3)nc1NC1CC1` [158a, N^4-cyclopropyl-N^2-(2,3-dihydrobenzo[b][1,4]dioxin-6-yl)-5-(trifluoromethyl)pyrimidine-2,4-diamine], the IC50 is less than 200 nM. On to `CNC(=O)c1ccccc1Oc1nc(Nc2cc(C)ccc2C)ncc1C(F)(F)F` [compound 104, 2-((2-((2,5-dimethylphenyl)amino)-5-(trifluoromethyl)pyrimidin-4-yl)oxy)-N-methylbenzamide], for which the IC50 is greater than 2000 nM. Regarding `O=C1CCc2cc(Nc3nc(OC4Cc5ccccc5C4)ncc3C(F)(F)F)ccc2N1` [180b, 6-((2-((2,3-dihydro-1H-inden-2-yl)oxy)-5-(trifluoromethyl)pyrimidin-4-yl)amino)-3,4-dihydroquinolin-2(1H)-one], the IC50 is greater than 2000 nM.

In the case of `FC(F)(F)c1cnc(NC2CCC2)nc1NC1CCC1` [168c, N^2,N^4-dicyclobutyl-5-(trifluoromethyl) pyrimidine-2,4-diamine], the IC50 fell in the range of 200 to 2000 nM. Take `CNC(=O)c1ccccc1Nc1nc(Nc2cc(OC)c(OC)c(OC)c2)ncc1C(F)(F)F` [compound 36, N-Methyl-2-(5-(trifluoromethyl)-2-(3,4,5-trimethoxyphenylamino)pyrimidin-4-ylamino)benzamide]: the IC50 was greater than 2000 nM. As for `CNC(=O)c1ccccc1Nc1nc(Nc2ccc3[nH]ccc3c2)ncc1Cl` [compound 18, 2-(2-(1H-indol-5-ylamino)-5-chloropyrimidin-4-ylamino)-N-methylbenzamide], the IC50 lay within 200 to 2000 nM. In the case of `COc1cccc(Nc2nc(Nc3ccc4c(c3)CCC(=O)N4)ncc2C(F)(F)F)c1` [compound 119, 6-((4-((3-methoxyphenyl)amino)-5-(trifluoromethyl)pyrimidin-2-yl)amino)-3,4-dihydroquinolin-2(1H)-one], the IC50 was less than 200 nM.

As to `Oc1ncc(C(F)(F)F)c(Nc2ccccc2N2CCOCC2)n1` [118c, 4-((2-morpholinophenyl)amino)-5-(trifluoromethyl)pyrimidin-2-ol], the IC50 is greater than 2000 nM. Regarding `FC(F)(F)c1cnc(N2CCC2)nc1Nc1ccc2c(c1)OCO2` [166a, 2-(azetidin-1-yl)-N-(benzo[d][1,3]dioxol-5-yl)-5-(trifluoromethyl)pyrimidin-4-amine], the IC50 is greater than 2000 nM.

Regarding `CNC(=O)c1ccccc1Nc1nc(Nc2ccc3c(c2)CCC(=O)N3)ncc1-c1ccccc1` [compound 89, N-Methyl-2-((2-((2-oxo-1,2,3,4-tetrahydroquinolin-6-yl)amino)-5-phenylpyrimidin-4-yl)amino)benzamide], the IC50 is less than 200 nM. In the case of `CNC(=O)c1ccccc1Nc1nc(Nc2cc(OC)ccc2C)ncc1C(F)(F)F` [compound 42, 2-(2-(5-Methoxy-2-methylphenylamino)-5-(trifluoromethyl)pyrimidin-4-ylamino)-N-methylbenzamide], the IC50 is less than 200 nM. For the compound `CNC(=O)c1ccccc1Sc1nc(Nc2cc(OC)ccc2C)ncc1C(F)(F)F` [compound 117, 2-((2-((5-methoxy-2-methylphenyl)amino)-5-(trifluoromethyl)pyrimidin-4-yl)thio)-N-methylbenzamide], the IC50 was greater than 2000 nM. Turning to `O=C1CCc2cc(Nc3nc(Nc4ccccc4N4CCOCC4)ncc3C(F)(F)F)ccc2N1` [118b, 6-((2-((2-morpholinophenyl)amino)-5-(trifluoromethyl)pyrimidin-4-yl)amino)-3,4-dihydroquinolin-2(1H)-one], the IC50 was greater than 2000 nM. With `O=C1CCc2cc(Nc3ncc(C(F)(F)F)c(NC4CCCC4)n3)ccc2N1` [160a, 6-((4-(cyclopentylamino)-5-(trifluoromethyl)pyrimidin-2-yl)amino)-3,4-dihydroquinolin-2(1H)-one], the IC50 was less than 200 nM. Take `CNC(=O)c1ccccc1Nc1nc(Nc2ccc3[nH]ccc3c2)ncc1Br` [compound 23, 2-(2-(1H-indol-5-ylamino)-5-bromopyrimidin-4-ylamino)-N-methylbenzamide]: the IC50 was less than 200 nM. With `CNS(=O)(=O)c1ccccc1Nc1nc(Nc2ccc(N3CCOCC3)cc2OC)ncc1Br` [compound 75, 2-(5-Bromo-2-(2-methoxy-4-morpholinophenylamino)pyrimidin-4-ylamino)-N-methylbenzenesulfonamide], the IC50 lay within 200 to 2000 nM. `COc1cc(Nc2ncc(C(F)(F)F)c(Nc3ccccn3)n2)cc(OC)c1OC` [compound 38, N^4-(Pyridin-2-yl)-5-(trifluoromethyl)-N^2-(3,4,5-trimethoxyphenyl)pyrimidine-2,4-diamine]: the IC50 fell in the range of 200 to 2000 nM. To `FC(F)(F)c1cnc(NCC2CC2)nc1Nc1ccc2c(c1)OCO2` [167a, N^4-(benzo[d][1,3]dioxol-5-yl)-N^2-(cyclopropylmethyl)-5-(trifluoromethyl)pyrimidine-2,4-diamine] belongs less than 200 nM; to `COc1ccc(Nc2nc(Nc3ccc4[nH]ccc4c3)ncc2Cl)cn1` [compound 29, 5-Chloro-N^2-(1H-indol-5-yl)-N^4-(6-methoxypyridin-3-yl) pyrimidine-2,4-diamine], 200 to 2000 nM. To `CNC(=O)c1ccccc1Oc1nc(Nc2ccc(Cl)c(Cl)c2)ncc1C(F)(F)F` [108a, 2-((2-((3,4-dichlorophenyl)amino)-5-(trifluoromethyl)pyrimidin-4-yl)oxy)-N-methylbenzamide] belongs greater than 2000 nM.

For the compound `COc1cc(N2CCOCC2)ccc1Nc1ncc(C(F)(F)F)c(Nc2ccccn2)n1` [compound 46, N^2-(2-Methoxy-4-morpholinophenyl)-N^4-(pyridin-2-yl)-5-(trifluoromethyl) pyrimidine-2,4-diamine], the IC50 fell in the range of 200 to 2000 nM.

On to `O=C1CCc2cc(Nc3ncc(C(F)(F)F)c(/C=C/c4ccccc4)n3)ccc2N1` [compound 69, (E)-6-(4-Styryl-5-(trifluoromethyl)pyrimidin-2-ylamino)-3,4-dihydroquinolin-2(1H)-one], for which the IC50 is less than 200 nM.

As to `FC(F)(F)c1cnc(Nc2cnc3[nH]ccc3c2)nc1NC1CCC1` [161a, N^4-cyclobutyl-N^2-(1H-pyrrolo[2,3-b]pyridin-5-yl)-5-(trifluoromethyl)pyrimidine-2,4-diamine], the IC50 is less than 200 nM. In the case of `COc1ccc(Nc2nc(Nc3cc(OC)c(OC)c(OC)c3)ncc2C(F)(F)F)cn1` [compound 37, N^4-(6-Methoxypyridin-3-yl)-5-(trifluoromethyl)-N^2-(3,4,5-trimethoxyphenyl)pyrimidine-2,4-diamine], the IC50 was less than 200 nM. To `CNC(=O)c1ccccc1Nc1nc(Nc2ccc3c(c2)CCC(=O)N3)ncc1Br` [compound 20, 2-((5-Bromo-2-((2-oxo-1,2,3,4-tetrahydroquinolin-6-yl)amino)pyrimidin-4-yl)amino)-N-methylbenzamide] belongs less than 200 nM; to `FC(F)(F)c1cnc(NC2CCC2)nc1Nc1ccc2c(c1)OCO2` [168a, N^4-(benzo[d][1,3]dioxol-5-yl)-N^2-cyclobutyl-5-(trifluoromethyl)pyrimidine-2,4-diamine], less than 200 nM; to `COc1cc(N2CCOCC2)ccc1Nc1nc(Nc2ccc3c(c2)CCC(=O)N3)ncc1C(F)(F)F` [123a, 6-((4-((2-methoxy-4-morpholinophenyl)amino)-5-(trifluoromethyl)pyrimidin-2-yl)amino)-3,4-dihydroquinolin-2(1H)-one], less than 200 nM. To `O=C1CCc2cc(Nc3ncc(C(F)(F)F)c(NC4CCC4)n3)ccc2N1` [150a, 6-((4-(cyclobutylamino)-5-(trifluoromethyl)pyrimidin-2-yl)amino)-3,4-dihydroquinolin-2(1H)-one] belongs less than 200 nM; to `COc1c(C)cnc(CNc2nc(Nc3ccc4c(c3)CCC(=O)N4)ncc2C(F)(F)F)c1C` [compound 82, 6-((4-(((4-Methoxy-3,5-dimethylpyridin-2-yl)methyl)amino)-5-(trifluoromethyl)pyrimidin-2-yl)amino)-3,4-dihydroquinolin-2(1H)-one], less than 200 nM.

As to `COc1ccc(Nc2nc(Nc3ccc(N4CCOCC4)cc3OC)ncc2C(F)(F)F)cn1` [compound 40, N^2-(2-methoxy-4-morpholinophenyl)-N^4-(6-methoxypyridin-3-yl)-5-(trifluoromethyl)pyrimidine-2,4-diamine], the IC50 is greater than 2000 nM. Regarding `COCCNc1nc(Nc2cnc3[nH]ccc3c2)ncc1C(F)(F)F` [compound 179, N4-(2-methoxyethyl)-N2-(1H-pyrrolo[2,3-b]pyridin-5-yl)-5-(trifluoromethyl)pyrimidine-2,4-diamine], the IC50 was in the range of 200 to 2000 nM. As to `Oc1nc(Nc2ccc(Cl)c(Cl)c2)ncc1C(F)(F)F` [108b, 2-((3,4-dichlorophenyl)amino)-5-(trifluoromethyl)pyrimidin-4-ol], the IC50 was greater than 2000 nM.

Regarding `CNC(=O)c1ccccc1Nc1nc(Nc2cc(OC)ccc2C)ncc1Cl` [compound 16, 2-(5-Chloro-2-(5-methoxy-2-methylphenylamino)pyrimidin-4-ylamino)-N-methylbenzamide], the IC50 is less than 200 nM. To `O=C1CCc2cc(Nc3ncc(C(F)(F)F)c(Nc4ccccc4)n3)ccc2N1` [compound 48, 6-(4-(Phenylamino)-5-(trifluoromethyl)pyrimidin-2-ylamino)-3,4-dihydroquinolin-2(1H)-one] belongs less than 200 nM; to `FC(F)(F)c1cnc(Nc2ccc3c(c2)OCO3)nc1Nc1ccc2c(c1)OCO2` [124c, N^2,N^4-bis(benzo[d][1,3]dioxol-5-yl)-5-(trifluoromethyl)pyrimidine-2,4-diamine], less than 200 nM.
